{
  "source": "patent US20190105337A1",
  "about": "“METHODS OF TREATING BACTERIAL INFECTIONS” (priority 2015, published 2019)",
  "assay": "Example 6: plasma, epithelial lining fluid (ELF) and alveolar macrophage (AM) concentrations at bronchoscopy with BAL",
  "conditions": "8-hour sampling time",
  "protocol": "A total of twenty-five (n=25) male and female subjects who met the study entry criteria and completed all phases of the pharmacokinetic study were included in this pharmacokinetic analysis. […] Blood samples were collected to measure drug concentrations in plasma prior to (time 0), and at 1.5, 2.95, 3.083, 3.25, 3.5, 4, 6, and 8 hours after the start of a 3-hour intravenous infusion of the third combination dose.\nUrea has been commonly used as an endogenous marker to estimate the apparent volume of ELF. Blood samples to determine plasma urea concentrations were obtained just prior to scheduled bronchoscopy. Aliquots of BAL were obtained to determine urea concentrations in BAL and cell count with differential. The standardized bronchoscopy with BAL procedure for the collection of intrapulmonary samples has been previously described in the references listed below.\n(Reports MC14B-0013, MC14B-0015, MC14I-011, and MC14I-0012). The urea concentrations in plasma and BAL were performed with a microplate-based method with an 0-phthalaldehyde chromogenic solution at MicroConstants, Inc., San Diego, Calif.\nThe calculations of ELF volume and drug concentrations in ELF and AM were performed with BAL supernatant and pulmonary (alveolar) cells (“cell pellet”) from aspirates recovered from the 2nd, 3rd, and 4th instillations (BAL2). The concentration of drug (ABXELF) in the epithelial lining fluid (ELF) was determined as follows:\n[…]\nVELF is derived from the following:\nwhere UreaBAL is the concentration of urea in BAL fluid and UreaP is the concentration of urea in plasma.\nThe concentration of drug (ABXAM) in the alveolar cells (AC) was determined as follows:\nDifferential cell count was performed to determine the number of macrophages present. A mean macrophage cell volume of 2.42 μl/106 cells was used in the calculations for volume of alveolar cells in the pellet suspension.\nThe concentration ratios of ELF and AM to the simultaneous plasma concentrations were calculated for each subject and summarized for each group at each sampling time. […] The 8-hour sampling time was also used as a value at time zero for determining the area term of plasma, ELF, and AM. The AUC0-8 for each matrix was determined with the linear trapezoidal method. The ratio of AUC0-8 of ELF to plasma and AM to plasma were calculated.",
  "data": [
    {"smiles": "C[C@@H](O)[C@@H](C(=O)O)[C@@H]1NC(C(=O)O)=C(S[C@@H]2CN[C@H](C(=O)N(C)C)C2)[C@@H]1C", "note": "[meropenem open-lactam]", "values": [
      {"measurement": "ELF concentrations", "result": "below the quantifiable limit"}
    ]}
  ]
}
